Experimental data taken from ChEMBL document CHEMBL5696442, “Discovery of type II inhibitors of TGFβ-activated kinase 1 (TAK1) and mitogen-activated protein kinase kinase kinase kinase 2 (MAP4K2)” (J Med Chem, 2015).
Active and inactive are the calls of the source. No cut-off for these calls is given here.

How the values were obtained:
[1] = target: 1-phosphatidylinositol 3-phosphate 5-kinase (Homo sapiens) (UniProt Q9Y2I7); experiment: Inhibition of PIP5K3 ATP labeling site in human Huh-7 cell lysate at 1 uM by KiNativ Profiling analysis relative to control; type: subcellular
[2] = target: Calcium/calmodulin-dependent protein kinase type II subunit delta (Homo sapiens) (UniProt Q13557); experiment: Inhibition of CaMK2d Lys2 labeling site in human Huh-7 cells at 1 uM by KiNativ Profiling analysis relative to control; type: cell-based
[3] = target: Serine/threonine-protein kinase Nek4 (Homo sapiens) (UniProt P51957); experiment: Inhibition of NEK4 Lys2 labeling site in human Huh-7 cells at 1 uM by KiNativ Profiling analysis relative to control; type: cell-based
[4] = target: Ephrin type-B receptor 1 (Homo sapiens) (UniProt P54762); experiment: Inhibition of EPHB1 (unknown origin) at 10 uM by Ambit Kinomescan binding assay
[5] = target: T1, Mitogen-activated protein kinase kinase kinase 15 (Homo sapiens) (UniProt Q6ZN16); experiment: Inhibition of MAP3K15 Lys1 labeling site harbouring IAIKEIPER in human A-375 cells at 0.05 uM by KiNativ Profiling analysis relative to control; type: cell-based
T1 sequence (whole entry): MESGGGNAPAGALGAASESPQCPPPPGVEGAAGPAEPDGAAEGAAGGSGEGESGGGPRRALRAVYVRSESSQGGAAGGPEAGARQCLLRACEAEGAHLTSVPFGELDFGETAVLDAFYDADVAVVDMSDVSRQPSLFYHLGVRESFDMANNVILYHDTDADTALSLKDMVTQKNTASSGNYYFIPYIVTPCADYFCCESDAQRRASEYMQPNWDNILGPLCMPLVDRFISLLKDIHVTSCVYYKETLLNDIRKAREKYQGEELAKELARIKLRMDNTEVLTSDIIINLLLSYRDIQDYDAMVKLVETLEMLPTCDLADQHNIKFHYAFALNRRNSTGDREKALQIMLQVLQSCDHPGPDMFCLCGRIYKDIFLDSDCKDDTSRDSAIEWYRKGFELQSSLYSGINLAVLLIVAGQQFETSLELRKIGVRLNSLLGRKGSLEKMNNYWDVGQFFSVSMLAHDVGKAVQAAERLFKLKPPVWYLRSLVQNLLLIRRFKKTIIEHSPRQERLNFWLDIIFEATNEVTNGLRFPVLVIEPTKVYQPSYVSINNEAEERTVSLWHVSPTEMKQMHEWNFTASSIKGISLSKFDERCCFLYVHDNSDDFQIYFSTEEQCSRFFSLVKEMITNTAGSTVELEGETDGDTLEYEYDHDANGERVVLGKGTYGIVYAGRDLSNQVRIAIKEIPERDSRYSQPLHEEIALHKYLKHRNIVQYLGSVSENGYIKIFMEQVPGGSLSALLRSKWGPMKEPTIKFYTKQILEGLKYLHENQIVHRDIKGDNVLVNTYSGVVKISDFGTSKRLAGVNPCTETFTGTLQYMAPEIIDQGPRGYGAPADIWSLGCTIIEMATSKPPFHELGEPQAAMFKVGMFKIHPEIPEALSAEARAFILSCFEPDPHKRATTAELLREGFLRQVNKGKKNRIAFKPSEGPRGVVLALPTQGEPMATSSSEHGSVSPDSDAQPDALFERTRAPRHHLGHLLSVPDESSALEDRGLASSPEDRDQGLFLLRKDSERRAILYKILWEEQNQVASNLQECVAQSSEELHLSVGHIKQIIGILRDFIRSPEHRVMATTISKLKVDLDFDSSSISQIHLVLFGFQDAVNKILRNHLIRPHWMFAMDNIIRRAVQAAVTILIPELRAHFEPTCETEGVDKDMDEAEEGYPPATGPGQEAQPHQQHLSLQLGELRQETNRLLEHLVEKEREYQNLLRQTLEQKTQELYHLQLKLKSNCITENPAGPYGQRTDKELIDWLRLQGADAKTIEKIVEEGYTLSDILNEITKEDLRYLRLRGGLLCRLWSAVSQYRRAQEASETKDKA

[6] = target: Cyclin-dependent kinase 7 (Homo sapiens) (UniProt P50613); experiment: Inhibition of CDK7 K2 labeling site in human Huh-7 cells at 1 uM by KiNativ Profiling analysis relative to control; type: cell-based
[7] = target: T2, Interleukin-1 receptor-associated kinase 4 (Homo sapiens) (UniProt Q9NWZ3); experiment: Inhibition of IRAK4 K2 labeling site in human Huh-7 cells at 1 uM by KiNativ Profiling analysis relative to control; type: cell-based
T2 sequence (whole entry): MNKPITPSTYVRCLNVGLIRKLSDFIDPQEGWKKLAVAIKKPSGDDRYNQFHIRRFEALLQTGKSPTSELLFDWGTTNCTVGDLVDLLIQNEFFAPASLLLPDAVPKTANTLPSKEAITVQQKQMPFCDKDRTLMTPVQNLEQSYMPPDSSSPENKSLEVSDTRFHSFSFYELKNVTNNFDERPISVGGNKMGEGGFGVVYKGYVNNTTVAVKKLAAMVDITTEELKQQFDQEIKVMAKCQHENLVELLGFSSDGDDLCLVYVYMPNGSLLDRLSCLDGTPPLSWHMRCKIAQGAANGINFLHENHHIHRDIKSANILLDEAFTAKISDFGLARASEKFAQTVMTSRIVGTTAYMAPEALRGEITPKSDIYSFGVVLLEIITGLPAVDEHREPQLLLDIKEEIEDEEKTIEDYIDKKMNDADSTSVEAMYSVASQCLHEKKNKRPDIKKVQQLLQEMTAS

[8] = target: Citron Rho-interacting kinase (Homo sapiens) (UniProt O14578); experiment: Inhibition of CIT (unknown origin) at 10 uM by Ambit Kinomescan binding assay relative to control; values are per cent of control
[9] = target: Glycogen synthase kinase-3 beta (Homo sapiens) (UniProt P49841); experiment: Inhibition of GSK3B Lys2 labeling site in human A-375 cells at 5 uM by KiNativ Profiling analysis relative to control; type: cell-based
[10] = target: T3, Dual specificity mitogen-activated protein kinase kinase 4 (Homo sapiens) (UniProt P45985); experiment: Inhibition of MEK4 (unknown origin) at 1 uM by Ambit Kinomescan binding assay relative to control; values are per cent of control
T3 sequence (whole entry): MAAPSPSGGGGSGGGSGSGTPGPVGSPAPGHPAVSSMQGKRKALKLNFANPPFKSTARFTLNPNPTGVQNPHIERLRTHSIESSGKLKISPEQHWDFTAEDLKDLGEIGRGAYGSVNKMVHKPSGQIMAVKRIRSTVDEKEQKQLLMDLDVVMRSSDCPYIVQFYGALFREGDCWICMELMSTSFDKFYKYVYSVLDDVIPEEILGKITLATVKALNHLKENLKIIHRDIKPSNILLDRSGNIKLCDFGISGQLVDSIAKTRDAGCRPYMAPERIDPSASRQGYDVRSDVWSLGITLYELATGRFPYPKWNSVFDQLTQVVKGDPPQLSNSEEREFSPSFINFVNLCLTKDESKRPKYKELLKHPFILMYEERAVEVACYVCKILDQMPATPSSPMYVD

Ephrin type-B receptor 1 (Homo sapiens), sequence (P54762 whole entry): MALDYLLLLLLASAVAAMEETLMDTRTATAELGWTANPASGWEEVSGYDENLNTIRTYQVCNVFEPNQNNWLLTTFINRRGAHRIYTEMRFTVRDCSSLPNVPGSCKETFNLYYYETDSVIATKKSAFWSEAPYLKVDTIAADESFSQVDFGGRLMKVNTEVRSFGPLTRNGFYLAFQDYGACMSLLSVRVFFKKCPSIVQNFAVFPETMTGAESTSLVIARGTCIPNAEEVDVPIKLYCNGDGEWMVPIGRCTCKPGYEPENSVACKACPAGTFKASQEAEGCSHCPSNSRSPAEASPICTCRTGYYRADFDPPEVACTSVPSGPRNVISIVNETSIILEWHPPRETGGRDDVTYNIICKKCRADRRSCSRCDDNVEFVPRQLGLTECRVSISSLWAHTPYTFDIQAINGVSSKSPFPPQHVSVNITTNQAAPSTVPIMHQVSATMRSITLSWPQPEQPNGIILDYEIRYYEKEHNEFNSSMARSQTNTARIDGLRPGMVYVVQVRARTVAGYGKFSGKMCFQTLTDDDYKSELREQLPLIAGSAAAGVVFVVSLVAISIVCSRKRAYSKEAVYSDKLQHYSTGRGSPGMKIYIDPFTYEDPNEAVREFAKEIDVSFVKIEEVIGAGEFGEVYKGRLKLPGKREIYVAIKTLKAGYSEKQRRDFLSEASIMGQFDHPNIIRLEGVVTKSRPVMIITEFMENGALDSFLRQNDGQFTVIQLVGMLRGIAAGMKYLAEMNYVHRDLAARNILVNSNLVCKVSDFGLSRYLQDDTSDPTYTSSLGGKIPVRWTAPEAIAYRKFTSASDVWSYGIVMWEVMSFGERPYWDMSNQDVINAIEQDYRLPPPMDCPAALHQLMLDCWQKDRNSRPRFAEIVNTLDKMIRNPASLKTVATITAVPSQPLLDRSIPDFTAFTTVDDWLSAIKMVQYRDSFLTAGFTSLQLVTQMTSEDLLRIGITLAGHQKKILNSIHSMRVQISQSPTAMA
Glycogen synthase kinase-3 beta (Homo sapiens), sequence (P49841 whole entry, looked up): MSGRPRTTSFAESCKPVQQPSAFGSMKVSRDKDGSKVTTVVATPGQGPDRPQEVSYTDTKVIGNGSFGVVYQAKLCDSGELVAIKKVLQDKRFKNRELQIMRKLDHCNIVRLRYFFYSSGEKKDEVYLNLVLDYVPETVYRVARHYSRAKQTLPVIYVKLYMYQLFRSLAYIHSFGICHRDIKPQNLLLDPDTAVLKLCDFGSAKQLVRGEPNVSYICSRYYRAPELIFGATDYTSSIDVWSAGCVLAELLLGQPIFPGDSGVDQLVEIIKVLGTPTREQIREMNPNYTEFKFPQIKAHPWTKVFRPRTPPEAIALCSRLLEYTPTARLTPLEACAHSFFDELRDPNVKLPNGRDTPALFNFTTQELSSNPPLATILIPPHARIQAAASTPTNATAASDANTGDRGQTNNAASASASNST
Citron Rho-interacting kinase (Homo sapiens), sequence (O14578 whole entry): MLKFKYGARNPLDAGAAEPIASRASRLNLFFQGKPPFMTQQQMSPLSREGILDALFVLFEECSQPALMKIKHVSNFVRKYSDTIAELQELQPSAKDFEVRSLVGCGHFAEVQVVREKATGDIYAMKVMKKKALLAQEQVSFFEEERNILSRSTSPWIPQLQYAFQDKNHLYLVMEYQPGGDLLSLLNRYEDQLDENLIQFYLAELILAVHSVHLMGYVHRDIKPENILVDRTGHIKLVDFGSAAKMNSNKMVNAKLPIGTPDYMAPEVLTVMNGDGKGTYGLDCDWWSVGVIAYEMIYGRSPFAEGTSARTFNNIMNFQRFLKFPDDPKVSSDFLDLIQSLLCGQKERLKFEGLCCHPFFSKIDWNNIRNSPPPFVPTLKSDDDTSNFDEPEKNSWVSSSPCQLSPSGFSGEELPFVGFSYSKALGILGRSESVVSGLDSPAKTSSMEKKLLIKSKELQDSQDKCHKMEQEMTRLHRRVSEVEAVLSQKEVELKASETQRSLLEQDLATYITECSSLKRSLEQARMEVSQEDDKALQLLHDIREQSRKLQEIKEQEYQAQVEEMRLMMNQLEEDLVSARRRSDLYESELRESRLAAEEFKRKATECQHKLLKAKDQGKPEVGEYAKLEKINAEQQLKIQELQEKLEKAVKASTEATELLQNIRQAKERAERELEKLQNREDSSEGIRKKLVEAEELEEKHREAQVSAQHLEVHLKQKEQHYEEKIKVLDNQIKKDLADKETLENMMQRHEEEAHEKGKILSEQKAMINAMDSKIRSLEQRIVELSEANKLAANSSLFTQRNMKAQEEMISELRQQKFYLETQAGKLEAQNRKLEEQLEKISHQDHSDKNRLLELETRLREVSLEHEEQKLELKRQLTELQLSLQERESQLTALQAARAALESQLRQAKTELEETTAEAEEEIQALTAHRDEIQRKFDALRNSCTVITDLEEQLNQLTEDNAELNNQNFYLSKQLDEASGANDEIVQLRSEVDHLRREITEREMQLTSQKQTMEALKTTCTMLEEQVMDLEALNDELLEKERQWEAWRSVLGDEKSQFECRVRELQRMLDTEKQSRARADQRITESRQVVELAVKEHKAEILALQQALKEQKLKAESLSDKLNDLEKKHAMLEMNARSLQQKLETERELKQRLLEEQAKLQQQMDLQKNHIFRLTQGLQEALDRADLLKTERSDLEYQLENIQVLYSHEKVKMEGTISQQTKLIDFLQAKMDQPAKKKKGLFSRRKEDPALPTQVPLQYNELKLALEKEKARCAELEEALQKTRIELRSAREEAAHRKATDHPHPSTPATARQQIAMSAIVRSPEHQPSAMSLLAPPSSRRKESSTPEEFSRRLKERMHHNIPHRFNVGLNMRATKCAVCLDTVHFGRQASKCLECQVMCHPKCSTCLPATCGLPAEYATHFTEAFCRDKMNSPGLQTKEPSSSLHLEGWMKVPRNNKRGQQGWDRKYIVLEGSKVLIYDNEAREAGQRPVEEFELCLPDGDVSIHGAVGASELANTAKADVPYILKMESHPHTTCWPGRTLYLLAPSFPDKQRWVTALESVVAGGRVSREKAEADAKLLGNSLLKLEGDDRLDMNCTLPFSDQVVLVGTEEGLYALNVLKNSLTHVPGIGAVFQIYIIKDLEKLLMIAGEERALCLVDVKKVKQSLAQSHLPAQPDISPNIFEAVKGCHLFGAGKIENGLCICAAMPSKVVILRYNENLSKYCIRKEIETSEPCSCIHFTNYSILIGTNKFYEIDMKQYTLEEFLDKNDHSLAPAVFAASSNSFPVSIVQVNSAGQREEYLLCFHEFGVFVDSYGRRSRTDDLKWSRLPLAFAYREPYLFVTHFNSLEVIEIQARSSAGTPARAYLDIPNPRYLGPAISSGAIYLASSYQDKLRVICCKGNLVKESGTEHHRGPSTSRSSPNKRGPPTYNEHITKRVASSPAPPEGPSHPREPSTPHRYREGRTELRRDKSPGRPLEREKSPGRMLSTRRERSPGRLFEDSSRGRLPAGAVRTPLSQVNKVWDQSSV
Calcium/calmodulin-dependent protein kinase type II subunit delta (Homo sapiens), sequence (Q13557 whole entry): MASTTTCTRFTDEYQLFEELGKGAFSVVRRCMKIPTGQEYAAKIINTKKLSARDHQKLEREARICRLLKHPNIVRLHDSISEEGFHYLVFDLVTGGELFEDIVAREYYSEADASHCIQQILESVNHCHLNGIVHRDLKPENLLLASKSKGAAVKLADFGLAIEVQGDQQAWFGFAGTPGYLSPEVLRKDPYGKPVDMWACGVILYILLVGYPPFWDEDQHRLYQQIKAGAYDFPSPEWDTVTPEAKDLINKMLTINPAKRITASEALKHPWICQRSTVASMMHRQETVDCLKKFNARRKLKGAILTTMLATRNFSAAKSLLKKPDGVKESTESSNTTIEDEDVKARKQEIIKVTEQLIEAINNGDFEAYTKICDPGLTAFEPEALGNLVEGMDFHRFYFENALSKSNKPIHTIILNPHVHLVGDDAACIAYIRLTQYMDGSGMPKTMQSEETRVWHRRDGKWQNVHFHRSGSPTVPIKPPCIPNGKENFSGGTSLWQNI
Cyclin-dependent kinase 7 (Homo sapiens), sequence (P50613 whole entry): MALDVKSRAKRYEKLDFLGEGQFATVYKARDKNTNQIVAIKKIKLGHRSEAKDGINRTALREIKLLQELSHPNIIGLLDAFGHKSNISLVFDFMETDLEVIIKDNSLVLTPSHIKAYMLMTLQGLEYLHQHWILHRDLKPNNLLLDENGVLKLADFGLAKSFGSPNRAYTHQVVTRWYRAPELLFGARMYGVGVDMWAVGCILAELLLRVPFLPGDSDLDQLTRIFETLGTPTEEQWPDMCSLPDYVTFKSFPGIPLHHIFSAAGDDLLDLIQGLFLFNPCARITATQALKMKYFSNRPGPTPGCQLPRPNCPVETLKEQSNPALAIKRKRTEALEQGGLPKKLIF

CNc1cc(Oc2cc(C(=O)Nc3cc(N4CCN(C)CC4)cc(C(F)(F)F)c3)ccc2C)ncn1
inhibition [1]: 0.7%
inhibition [2]: 20.3%
inhibition [3]: 43.4%

CCN1CCN(Cc2ccc(NC(=O)c3ccc(C)c(Oc4ccnc5[nH]ccc45)c3)cc2C(F)(F)F)CC1
inhibition [4]: inactive
inhibition [5]: 10.8%
inhibition [6]: 5.6%
inhibition [7]: -9.1%
percent of control [8]: 0.1%

CCN1CCN(Cc2ccc(NC(=O)c3ccc(C)c(/C=C/c4cnc5[nH]ccc5c4OC)c3)cc2C(F)(F)F)CC1
inhibition [9]: 34.6%
residual activity [10]: 100%
